“And” between values parts separate entries of the source, which are not always exact repeats. Equal entries are not always repeated. Marks after values point to notes of the source that are not given here.
Columns and labels:
hCB1 [1] = molecular target: T1, hCB1 (Homo sapiens, UniProt P21554); experiment: Lance Ultra cAMP accumulation assay, CHO cells; format: cell-based; set-up: expressed in transfected cells; conditions: for normalised cAMP response, concentration-response (Figure2f), replicate values: log[Compound;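 for all read-outs here: human CB1R stably expressed in CHO cells, ligands co-incubated with forskolin at room temperature, read-out is lowering of forskolin-stimulated cAMP accumulation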
T1 sequence (P21554 whole entry): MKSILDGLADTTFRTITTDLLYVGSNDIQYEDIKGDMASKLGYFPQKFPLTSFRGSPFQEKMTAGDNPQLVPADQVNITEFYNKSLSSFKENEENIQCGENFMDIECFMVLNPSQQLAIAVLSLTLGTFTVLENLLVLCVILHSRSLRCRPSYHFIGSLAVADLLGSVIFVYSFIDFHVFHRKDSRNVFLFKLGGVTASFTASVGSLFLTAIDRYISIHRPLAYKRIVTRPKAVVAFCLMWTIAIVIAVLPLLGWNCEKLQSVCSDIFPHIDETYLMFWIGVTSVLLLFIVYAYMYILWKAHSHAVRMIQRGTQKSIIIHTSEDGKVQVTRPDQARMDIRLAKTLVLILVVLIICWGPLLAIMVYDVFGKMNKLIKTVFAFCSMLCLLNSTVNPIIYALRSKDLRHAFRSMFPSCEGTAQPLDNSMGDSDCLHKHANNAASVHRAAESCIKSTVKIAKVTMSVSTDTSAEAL

hCB1 [2] = molecular target: T1, hCB1; experiment: bioSensAll ebBRET signaling profiling, hCB1; format: cell-based; set-up: host or cells: HEK293SL cells, transient PEI transfection

## COC(=O)[C@@](C)(NC(=O)c1cc(C)n(-c2cccc(C(F)(F)F)c2)n1)c1cccs1 [‘1350]
hCB1 [1]
  Lance Ultra cAMP pEC50: 8.8 [8.4 – 9.2]
hCB1 [1]; CHO
  Emax: 77%
hCB1 [1]; hCB1-expressing cells, in words
  agonism, inhibition of forskolin-stimulated cAMP: agonists
hCB1 [1]; M] -5
  normalised cAMP response, concentration-response (Figure2f), replicate values: -4.858 and 11.635 and 22.5761 and 22.3192 and 16.0513
hCB1 [1]; M] -6
  normalised cAMP response, concentration-response (Figure2f), replicate values: 0.02957 and 13.0032 and 24.8348 and 23.4809 and 19.7873
hCB1 [1]; M] -7
  normalised cAMP response, concentration-response (Figure2f), replicate values: -1.176 and 11.2775 and 31.1162 and 23.9321 and 21.5823
hCB1 [1]; M] -8
  normalised cAMP response, concentration-response (Figure2f), replicate values: 4.023 and 6.478 and 36.7172 and 38.802 and 36.5532
hCB1 [1]; M] -9
  normalised cAMP response, concentration-response (Figure2f), replicate values: 33.486 and 46.5508 and 80.4827 and 77.993 and 76.9862
hCB1 [1]; M] -10
  normalised cAMP response, concentration-response (Figure2f), replicate values: 57.5574 and 85.1374 and 96.2204 and 101.985 and 96.4953
hCB1 [1]; M] -11
  normalised cAMP response, concentration-response (Figure2f), replicate values: 67.5707 and 85.3574 and 95.6722 and 97.0187 and 98.6477
hCB1 [1]; M] -12
  normalised cAMP response, concentration-response (Figure2f), replicate values: 65.6738 and 93.8429 and 115.239 and 106.805 and 95.2537
hCB1 [2]; CB1R, Gi/o and G13 subtypes
  fold more relatively efficacious than CP-55,940: approximately 2 fold
hCB1 [2]; Log [Compound] (M) -4.22186
  Barr2+GRK2 hCB1: 125.5* and 120.6* and 91.27*
  G13 hCB1: 69.1809 and 43.3855
  G15 hCB1: 108.417 and 97.817
  Gi1 hCB1: 103.518 and 79.8531 and 99.2855
  Gi2 hCB1: 106.254 and 114.578
  GoB hCB1: 102.685 and 99.7877 and 104.661
  Gq hCB1: 1156
  Gs hCB1: 6234
  Gz hCB1: 98.9486
hCB1 [2]; Log [Compound] (M) -4.63927
  Barr2+GRK2 hCB1: 67.7543 and 59.6502 and 97.3886
  G15 hCB1: 104.285 and 89.1373
  Gi1 hCB1: 100.256 and 80.2965 and 97.3658
  Gi2 hCB1: 112.478 and 82.217
  GoB hCB1: 94.4304 and 95.2911 and 109.92
  Gq hCB1: 1096
  Gs hCB1: 6120
  Gz hCB1: 94.4339
hCB1 [2]; Log [Compound] (M) -5.05788
  G15 hCB1: 99.6047 and 93.8454
  Gi1 hCB1: 101.042 and 84.715 and 96.0704
  Gi2 hCB1: 100.013 and 77.0501
  GoB hCB1: 90.3283 and 96.4543
  Gq hCB1: 1019
  Gs hCB1: 6223
  Gz hCB1: 91.6266
hCB1 [2]; Log [Compound] (M) -5.47381
  G15 hCB1: 92.6315 and 93.0563
  Gi1 hCB1: 98.0616 and 86.5046 and 101.002
  Gi2 hCB1: 109.888 and 85.6163
  GoB hCB1: 95.0781 and 98.6071
  Gq hCB1: 1081
  Gs hCB1: 6070
  Gz hCB1: 90.4534
hCB1 [2]; Log [Compound] (M) -5.89285
  Barr2+GRK2 hCB1: 49.9477 and 47.2064 and 86.5049
  G15 hCB1: 99.748 and 91.636
  Gi1 hCB1: 97.1719 and 80.8667 and 101.065
  Gi2 hCB1: 102.458 and 76.0168
  GoB hCB1: 92.8683 and 94.9439 and 107.071
  Gq hCB1: 1042
  Gs hCB1: 6370
  Gz hCB1: 91.8989
hCB1 [2]; Log [Compound] (M) -6.31878
  G15 hCB1: 101.969 and 92.5566
  Gi1 hCB1: 107.685 and 74.7378 and 104.951
  Gi2 hCB1: 103.614 and 79.7423
  GoB hCB1: 90.0362 and 98.2252 and 101.933
  Gq hCB1: 1039
  Gs hCB1: 6417
  Gz hCB1: 93.1455
hCB1 [2]; Log [Compound] (M) -6.72585
  G15 hCB1: 105.885 and 89.0321
  Gi1 hCB1: 94.74 and 76.8441 and 99.3323
  Gi2 hCB1: 103.093 and 82.0131
  GoB hCB1: 94.0367 and 93.8848 and 98.7347
  Gq hCB1: 1115
  Gs hCB1: 6298
  Gz hCB1: 84.3779
hCB1 [2]; Log [Compound] (M) -7.14267
  G15 hCB1: 103.856 and 93.4508
  Gi1 hCB1: 91.7446 and 70.6519 and 99.504
  Gi2 hCB1: 99.8505 and 80.4086
  GoB hCB1: 91.8523 and 88.9368 and 103.009
  Gq hCB1: 1002
  Gs hCB1: 6288
  Gz hCB1: 87.489 and 99.2286
hCB1 [2]; Log [Compound] (M) -7.55284
  Barr2+GRK2 hCB1: 47.1448 and 43.6966 and 56.3415
  G15 hCB1: 99.9152 and 95.5813
  Gi1 hCB1: 97.765 and 74.1201 and 97.5531
  Gi2 hCB1: 96.1681 and 79.7288
  GoB hCB1: 92.1444 and 89.4924 and 88.6102
  Gq hCB1: 1106
  Gs hCB1: 6295
  Gz hCB1: 88.7355 and 97.954
hCB1 [2]; Log [Compound] (M) -8
  G13 hCB1: 59.5674 and 29.7847
  G15 hCB1: 98.7928 and 95.555
  Gi1 hCB1: 85.5759 and 80.7558 and 94.7595
  Gi2 hCB1: 103.924 and 86.4729
  GoB hCB1: 93.1096 and 93.0515 and 90.8837
  Gq hCB1: 998
  Gs hCB1: 6325
  Gz hCB1: 81.7172 and 92.9121
hCB1 [2]; Log [Compound] (M) -8.22186
  Barr2+GRK2 hCB1: 55.5534 and 36.0388 and 57.0671
  G13 hCB1: 68.4414 and 35.9312
